Measured values as given in patent publication US5741788A, “Heterocyclic compounds and their preparation and use” (Novo Nordisk A/S, priority 1994, dated 1998).
Counter-ions that a name gives are not always drawn. Like-named read-outs stand apart in the source and are kept apart here.

Assays:
[1] = molecular target: muscarinic receptor in the CNS; conditions: read-out: affinity of site labelled by ^3 H-Oxo, cited from earlier work
[2] = molecular target: muscarinic acetylcholine receptors; assay: inhibition of specific binding of ^3 H-Oxotremorine-M (^3 H-Oxo) to rat cortex homogenate; parameters: species or system male Wistar rats; conditions: 1.0 nM radioligand, 30 min at 25° C., pH 7.4
Text: The pharmacological properties of the compounds of the invention can be illustrated by determining their capability to inhibit the specific binding of ^3 H-Oxotremorine-M (^3 H-Oxo). Birdsdall N. J. M., Hulme E. C., and Burgen A. S. V. (1980). "The Character of Muscarinic Receptors in Different Regions of the Rat Brain". Proc. Roy. Soc. London (Series B) 207,1.
^3 H-Oxo labels muscarinic receptor in the CNS (with a preference for agonist domains of the receptors). Three different sites are labelled by ^3 H-Oxo. […] Using the present experimental conditions only the high and medium affinity sites are determined.
The inhibitory effects of compounds on ^3 H-Oxo binding reflects the affinity for muscarinic acetylcholine receptors.
All preparations are performed at 0°-4° C. unless otherwise indicated. Fresh cortex (0.1-1 g) from male Wistar rats (150-250 g) is homogenized for 5-10 s in 10 ml 20 mM Hepes pH: 7.4, with an Ultra-Turrax homogenizer. The homogenizer is rinsed with 10 ml of buffer and the combined suspension centrifuged for 15 min. at 40,000×g. The pellet is washed three times with buffer. In each step the pellet is homogenized as before in 2×10 ml of buffer and centrifuged for 10 min. at 40,000×g.
The final pellet is homogenized in 20 mM Hepes pH: 7.4 (100 ml per g of original tissue) and used for binding assay. Aliquots of 0.5 ml is added 25 ul of test solution and 25 ul of ^3 H-Oxotremorine (1.0 nM, final concentration) mixed and incubated for 30 min. at 25° C. Non-specific binding is determined in triplicate using arecoline (1 ug/ml, final concentration) as the test substance. After incubation samples are added 5 ml of ice-cold buffer and poured directly onto Whatman GF/C glass fiber filters under suction and immediately washed 2 times with 5 ml of ice-cold buffer. The amount of radioactivity on the filters are determined by conventional liquid scintillation counting. Specific binding is total binding minus non specific binding.
Test substances are dissolved in 10 ml water (if necessary heated on a steam-bath for less than 5 min.) at a concentration of 2.2 mg/ml. 25-75% inhibition of specific binding must be obtained before calculation of IC50.
The test value will be given as IC50 (the concentration (nM) of the test substance which inhibits the specific binding of ^3 H-Oxo by 50%).
(§1) IC50 =(applied test substance concentration)×(Cx /Co -Cx)nM
(§2) where Co is specific binding in control assays and Cx is the specific binding in the test assay. (The calculations assume normal mass-action kinetics).

[3] = molecular target: T1, M1-site (pirenzepine sensitive site) of muscarinic receptors (Rattus norvegicus, UniProt P08482); assay: inhibition of ^3 H-PRZ (pirenzepine, [N-methyl-^3 H]) binding to rat cerebral cortex membranes; parameters: species or system male Wistar rats
T1 construct: Fresh cortex (0.1-1 g) from male Wistar rats (150-200 g) is homogenized; from tissue; host or cells: cerebral cortex of male Wistar rats
T1 sequence (P08482 1-460): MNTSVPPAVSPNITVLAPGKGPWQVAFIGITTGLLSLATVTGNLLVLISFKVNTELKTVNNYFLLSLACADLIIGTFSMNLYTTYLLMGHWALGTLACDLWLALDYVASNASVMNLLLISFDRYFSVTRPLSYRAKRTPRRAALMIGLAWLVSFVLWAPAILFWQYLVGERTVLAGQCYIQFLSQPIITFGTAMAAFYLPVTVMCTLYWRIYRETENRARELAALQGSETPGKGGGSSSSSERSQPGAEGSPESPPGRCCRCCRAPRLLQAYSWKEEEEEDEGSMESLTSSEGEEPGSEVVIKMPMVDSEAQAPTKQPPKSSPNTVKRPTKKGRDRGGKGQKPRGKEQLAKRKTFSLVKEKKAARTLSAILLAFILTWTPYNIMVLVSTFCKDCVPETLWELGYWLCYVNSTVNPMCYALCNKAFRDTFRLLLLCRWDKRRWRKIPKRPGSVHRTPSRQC
Text: Furthermore the pharmacological properties of the compounds of the invention can also be illustrated by determining their capability to inhibit ^3 H-PRZ (pirenzepine, [N-methyl-^3 H]) binding to rat cerebral cortex membranes. Pirenzepine binds selectively to subtype of muscarinic receptors. Historically the type is named the M1 -site, whereas pirenzepine sensitive site would be more appropriate. Although selective for M1 -sites pirenzepine also interact with M2 -sites.
All preparations are performed at 0°-4° C. unless otherwise indicated. Fresh cortex (0.1-1 g) from male Wistar rats (150-200 g) is homogenized for 5-10 s. in 10 ml 20 mM Hepes pH: 7.4, with an Ultra-Turraxhomogenizer. The homogenizer is rinzed with 2×10 ml of buffer and the combined suspension centrifuged for 15 min at 40,000×g. The pellet is washed three times with buffer. In each step the pellet is homogenized as before in 3×10 ml of buffer and centrifuged for 10 min at 40,000×g.
The final pellet is homogenized in 20 mM Hepes pH: 7.4 (100 ml per g of original tissue) and used for binding assay. Aliquots of 0.5 ml is added 20 μl of test solution and 25 μl of ^3 H-Pirenzepine (1.0 nM, final conc.), mixed and incubated for 60 min at 20° C. Non-specificbinding is determined in triplicate using atropine (1 μg/ml, final conc.) as the test substance. After incubation samples are added 5 ml of ice-cold buffer and poured directly onto Whatman GF/C glass fiber filters inder suction and immediately washed 2 times with 5 ml of ice-cold buffer. The amount of radioactivity on the filters are determined by conventional liquid scintillation counting. Specific binding is total binding minus non-specific binding.
Test substances are dissolved in 10 ml water, at a concentration of 0.22 mg/ml. 25-75% inhibition of specific binding must be obtained before calculation of IC50.
The test value will be given as IC50 (the concentration (nM) of the test substance which inhibits the specific binding of ^3 H-PRZ by 50%).
as §1, §2

Structure (SMILES)	Kd ([1]; first of three sites (high affinity)) [nM]	Kd ([1]; second of three sites (medium affinity)) [nM]	Kd ([1]; third of three sites, not determined under the present experimental conditions) [nM]	^3 H-Oxo-M IC50 [2] [ng/mL]	IC50 [3] [nM]	IC50 ([3]; rat cortex, 1.0 nM ^3 H-Pirenzepine, 60 min at 20° C., pH 7.4, read-out: ^3 H-Pz IC50) [nM]
C[N+](C)(C)CC#CCN1CCCC1=O [^3 H-Oxo, ^3 H-Oxotremorine-M]	1.8	20	3000			
CN1C2CCC1c1c(sc3nsnc13)C2.O=C(O)C(=O)O (stereo not shown) [Compound 1, 6,8-Ethano-7-methyl-5,6,7,8-tetrahydro-1,2,5-thiadiazolo[3',4':4,5]thieno[3,2-c]pyridine oxalate]				270	> 1000	
O=C(O)C(=O)O.c1cc2nsnc2c2c1CCNC2 [Compound 4, 6,7,8,9-Tetrahydro[1,2,5]thiadiazolo[3,4-h]isoquinoline oxalate]				14	255	
CN1CCC2=C(C1)c1nsnc1SC2 [Compound 5, oxalate]				14	80	
C1CC2CN(C1)Cc1c2sc2nsnc12.O=C(O)C(=O)O (stereo not shown) [Compound 3, 5,9-Methano-5,6,7,8,9,10-hexahydro-1,2,5-thiadiazolo[3',4':4,5]thieno[3,2-c]azocine oxalate]				2.2	26	
C1Cc2sc3nsnc3c2CN1.O=C(O)C(=O)O [Compound 2, 5,6,7,8-Tetrahydro-1,2,5-thiadiazolo[3',4':4,5]thieno[3,2-c]pyridine oxalate]				6.4		284
